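Briefly, cells in 96-well plates were exposed to five compound concentrations for 48 h, and endpoints were estimated by linear interpolation. TGI denotes the concentration required for complete inhibition of growth.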
Tests used:
Assay in all cases: growth of human tumour cells (NCI), 48 h
786-0 renal = system: 786-0 renal
A498 renal = system: A498 renal
A549 NSCLC = system: A549 NSCLC
ACHN renal = system: ACHN renal
BT-549 breast = system: BT-549 breast
CAKI-1 renal = system: CAKI-1 renal
CCRF-CEM leukemia = system: CCRF-CEM leukemia
COLO 205 colon = system: COLO 205 colon
DU-145 prostate = system: DU-145 prostate
EKVX NSCLC = system: EKVX NSCLC
HCC-2998 colon = system: HCC-2998 colon
HCT-116 colon = system: HCT-116 colon
HCT-15 colon = system: HCT-15 colon
HL-60(TB) leukemia = system: HL-60(TB) leukemia
HOP-62 NSCLC = system: HOP-62 NSCLC
HS 578T breast = system: HS 578T breast
HT29 colon = system: HT29 colon
IGROV1 ovarian = system: IGROV1 ovarian
K-562 leukemia = system: K-562 leukemia
KM12 colon = system: KM12 colon
LOX IMVI melanoma = system: LOX IMVI melanoma
M14 melanoma = system: M14 melanoma
MALME-3M melanoma = system: MALME-3M melanoma
MCF7 breast = system: MCF7 breast
MDA-MB-231 breast = system: MDA-MB-231 breast
MDA-MB-435 = system: MDA-MB-435
MDA-N = system: MDA-N
MOLT-4 leukemia = system: MOLT-4 leukemia
NCI-H226 lung = system: NCI-H226 lung
NCI-H23 lung = system: NCI-H23 lung
NCI-H460 lung = system: NCI-H460 lung
NCI-H522 lung = system: NCI-H522 lung
NCI/ADR-RES ovarian = system: NCI/ADR-RES ovarian
OVCAR-3 ovarian = system: OVCAR-3 ovarian
OVCAR-4 ovarian = system: OVCAR-4 ovarian
OVCAR-5 ovarian = system: OVCAR-5 ovarian
OVCAR-8 ovarian = system: OVCAR-8 ovarian
PC-3 prostate = system: PC-3 prostate
RPMI-8226 leukemia = system: RPMI-8226 leukemia
RXF 393 renal = system: RXF 393 renal
SF-268 CNS = system: SF-268 CNS
SF-295 CNS = system: SF-295 CNS
SF-539 CNS = system: SF-539 CNS
SK-MEL-2 melanoma = system: SK-MEL-2 melanoma
SK-MEL-28 melanoma = system: SK-MEL-28 melanoma
SK-MEL-5 melanoma = system: SK-MEL-5 melanoma
SK-OV-3 ovarian = system: SK-OV-3 ovarian
SN12C renal = system: SN12C renal
SNB-19 CNS = system: SNB-19 CNS
SNB-75 CNS = system: SNB-75 CNS
SR leukemia = system: SR leukemia
SW-620 colon = system: SW-620 colon
T-47D breast = system: T-47D breast
TK-10 renal = system: TK-10 renal
U251 CNS = system: U251 CNS
UACC-257 melanoma = system: UACC-257 melanoma
UACC-62 melanoma = system: UACC-62 melanoma
UO-31 renal = system: UO-31 renal

Cc1nn(C(=O)c2ccccc2O)c2c1C(c1ccc(O)cc1)SC(N)=N2 (stereo unspecified)
TGI (786-0 renal): > 10 µM
TGI (A498 renal): > 10 µM
TGI (A549 NSCLC): > 10 µM
TGI (ACHN renal): > 10 µM
TGI (BT-549 breast): > 10 µM
TGI (CAKI-1 renal): > 10 µM
TGI (CCRF-CEM leukemia): > 10 µM
TGI (COLO 205 colon): > 10 µM
TGI (DU-145 prostate): > 10 µM
TGI (EKVX NSCLC): > 10 µM
TGI (HCC-2998 colon): > 10 µM
TGI (HCT-116 colon): > 3.32 µM
TGI (HCT-15 colon): > 10 µM
TGI (HL-60(TB) leukemia): > 4.33 µM
TGI (HOP-62 NSCLC): > 10 µM
TGI (HS 578T breast): > 10 µM
TGI (HT29 colon): > 10 µM
TGI (IGROV1 ovarian): > 7.17 µM
TGI (K-562 leukemia): > 3.53 µM
TGI (KM12 colon): > 10 µM
TGI (LOX IMVI melanoma): > 10 µM
TGI (M14 melanoma): > 10 µM
TGI (MALME-3M melanoma): > 10 µM
TGI (MCF7 breast): > 10 µM
TGI (MDA-MB-231 breast): > 10 µM
TGI (MDA-MB-435): > 10 µM
TGI (MDA-N): > 10 µM
TGI (MOLT-4 leukemia): > 10 µM
TGI (NCI-H226 lung): > 6.22 µM
TGI (NCI-H23 lung): > 10 µM
TGI (NCI-H460 lung): > 10 µM
TGI (NCI-H522 lung): > 10 µM
TGI (NCI/ADR-RES ovarian): > 10 µM
TGI (OVCAR-3 ovarian): > 6.89 µM
TGI (OVCAR-4 ovarian): > 8.37 µM
TGI (OVCAR-5 ovarian): > 10 µM
TGI (OVCAR-8 ovarian): > 10 µM
TGI (PC-3 prostate): > 10 µM
TGI (RPMI-8226 leukemia): > 5.38 µM
TGI (RXF 393 renal): > 10 µM
TGI (SF-268 CNS): > 10 µM
TGI (SF-295 CNS): > 10 µM
TGI (SF-539 CNS): > 2.47 µM
TGI (SK-MEL-2 melanoma): > 10 µM
TGI (SK-MEL-28 melanoma): > 10 µM
TGI (SK-MEL-5 melanoma): > 10 µM
TGI (SK-OV-3 ovarian): > 10 µM
TGI (SN12C renal): > 10 µM
TGI (SNB-19 CNS): > 10 µM
TGI (SNB-75 CNS): 8.56 µM
TGI (SR leukemia): > 3.92 µM
TGI (SW-620 colon): > 10 µM
TGI (T-47D breast): 9.72 µM
TGI (TK-10 renal): > 10 µM
TGI (U251 CNS): > 10 µM
TGI (UACC-257 melanoma): > 10 µM
TGI (UACC-62 melanoma): > 10 µM
TGI (UO-31 renal): > 10 µM

COCCCN1C(=O)C2c3[nH]c4ccccc4c3C3CCC(C(C)(C)C)CC3C2C1=O (stereo unspecified)
TGI (786-0 renal): 63.1 µM
TGI (A549 NSCLC): > 100 µM
TGI (ACHN renal): 83.9 µM
TGI (BT-549 breast): > 100 µM
TGI (CAKI-1 renal): 55 µM
TGI (CCRF-CEM leukemia): 52.9 µM
TGI (COLO 205 colon): > 10 µM
TGI (DU-145 prostate): > 100 µM
TGI (EKVX NSCLC): > 100 µM
TGI (HCC-2998 colon): 54.6 µM
TGI (HCT-116 colon): 38.6 µM
TGI (HCT-15 colon): 44.7 µM
TGI (HL-60(TB) leukemia): 54.5 µM
TGI (HOP-62 NSCLC): 52.2 µM
TGI (HS 578T breast): 87.6 µM
TGI (HT29 colon): 34 µM
TGI (IGROV1 ovarian): > 100 µM
TGI (K-562 leukemia): > 10 µM
TGI (KM12 colon): 55.5 µM
TGI (M14 melanoma): 39 µM
TGI (MCF7 breast): 56.2 µM
TGI (MDA-MB-231 breast): 56.3 µM
TGI (MDA-MB-435): > 100 µM
TGI (MDA-N): > 100 µM
TGI (MOLT-4 leukemia): 70 µM
TGI (NCI-H226 lung): 60.6 µM
TGI (NCI-H23 lung): 82.6 µM
TGI (NCI-H460 lung): 36.2 µM
TGI (NCI-H522 lung): 55.4 µM
TGI (NCI/ADR-RES ovarian): > 10 µM
TGI (OVCAR-3 ovarian): 35.9 µM
TGI (OVCAR-4 ovarian): > 100 µM
TGI (OVCAR-8 ovarian): > 100 µM
TGI (PC-3 prostate): 50.8 µM
TGI (RPMI-8226 leukemia): 56.1 µM
TGI (RXF 393 renal): 51.3 µM
TGI (SF-268 CNS): > 100 µM
TGI (SF-295 CNS): 56.3 µM
TGI (SF-539 CNS): 70.2 µM
TGI (SK-MEL-28 melanoma): > 100 µM
TGI (SK-MEL-5 melanoma): 82.4 µM
TGI (SK-OV-3 ovarian): > 100 µM
TGI (SN12C renal): 50 µM
TGI (SNB-19 CNS): > 100 µM
TGI (SNB-75 CNS): > 100 µM
TGI (SR leukemia): 80.6 µM
TGI (SW-620 colon): > 100 µM
TGI (T-47D breast): > 100 µM
TGI (TK-10 renal): > 100 µM
TGI (U251 CNS): 34.5 µM
TGI (UACC-257 melanoma): 79.4 µM
TGI (UACC-62 melanoma): > 10 µM
TGI (UO-31 renal): > 100 µM

From PubChem BioAssay (NCI)
